“Also recorded” adds a separate entry of the source.
Tests used:
[1] = biological target: T1, WS2 (Marinobacter nauticus, UniProt A3RE51); assay: Coupled enzyme assay, WS substrate profile (TLC); format: biochemical, Marinobacter hydrocarbonoclasticus DSM 8798; settings: coupled reaction; palmitic acid with hexadecanol, phytanic acid with phytol, phytanoyl-CoA with the alcohols named in the value
Method: (§1) Stock solutions of various substrates were prepared in 50 mM Tris-HCl buffer (pH 8) containing 1% gum arabic, 12.5 μg bovine serum albumin ml^−1, 0.1% taurocholate, and either 100 mM fatty acid, isoprenoid acid, fatty alcohol, or isoprenoid alcohol. Stock solutions were sonicated to disperse the substrates. Substrate profiles of the three WS were tested using coupled enzyme in vitro reactions in which the CoA synthetases Acs1 and Acs2 are added to synthesize the CoA-activated fatty acid phytanic acid substrates from corresponding acid precursors for the WS reactions. Assays were carried out in 500-μl reactions containing in 50 mM Tris-HCl buffer (pH 8.0), 12.5 μl of each acid, and alcohol substrate stock solution (final concentrations of each substrate of 250 μM), 10 mM MgCl2, 10 mM CoASH, 10 mM ATP, 5 mM TCEP, 0.1 U of inorganic pyrophosphatase, 0.25 μg of Acs1 and Acs2 CoA synthetase, and 0.5 μg of WS to be tested. Assays were incubated at 37° C. overnight before thin-layer chromatography (TLC) analysis of the reaction products.
(§2) In vitro WS assay samples were extracted with 500 μl of chloroformmethanol (1:1 [vol/vol]), and extracts were analyzed by TLC with Whatman normal phase silica gel 60 plates and developed using hexane-diethyl ether-acetic acid (90:10:1 [vol/vol/vol]). TLC plates were stained with either iodine vapor or anisaldehyde solution as described earlier (Jork et al., 1990. Thin-layer chromatography reagents and detection methods, vol. 1a. Physical and chemical detection methods: fundamentals, reagents. VHC, Weinheim, Germany). Palmitoyl palmitate and triolein were used as WE and TAG reference compounds, respectively.

[2] = biological target: T1, WS2; assay: Kinetic WS assay, spectrophotometric (CoA release, DTNB); format: biochemical, Marinobacter hydrocarbonoclasticus DSM 8798
Method: Assay reactions were preincubated at 37° C. for 5 min before the reactions were started by the addition of enzyme. Heat-denatured enzyme (99° C. for 15 min) was used as a negative control.
(§3) Acyl-CoA and fatty/isoprenoid alcohol specificity of WS2 was determined in the same manner as described for the kinetic WS assay with assumed saturating conditions containing both the fatty/isoprenoid alcohol and acyl-CoA substrates at a concentration of 1 mM. Acyl-CoA specificity was measured with hexadecanol as acyl acceptor, whereas palmitoyl-CoA was used as acyl donor to determine alcohol specificity.
A spectrophotometric assay was developed to determine the kinetic properties of WS1 and WS2. […] The specific activities of WS1, WS2, and Acinetobacter WS/DGAT were measured with palmitoyl-CoA and hexadecanol, palmitoyl-CoA and phytol, and phytanoyl-CoA and phytol. Phytanoyl-CoA for these assays was enzymatically synthesized from phytanic acid and CoA using the above-characterized isoprenoid/acyl-CoA synthetase Acs2.

[3] = tested on: WS1; assay: Coupled enzyme assay, WS substrate profile (TLC); format: biochemical, Marinobacter hydrocarbonoclasticus DSM 8798; settings: coupled reaction; palmitic acid with hexadecanol, phytanic acid with phytol, phytanoyl-CoA with the alcohols named in the value
Method: as §1, §2

[4] = biological target: T2, Acinetobacter WS/DGAT (Acinetobacter baylyi, UniProt Q8GGG1); assay: Kinetic WS assay, spectrophotometric (CoA release, DTNB); format: biochemical
T2 construct: His6 (N); made in house
T2 sequence (Q8GGG1 1-458): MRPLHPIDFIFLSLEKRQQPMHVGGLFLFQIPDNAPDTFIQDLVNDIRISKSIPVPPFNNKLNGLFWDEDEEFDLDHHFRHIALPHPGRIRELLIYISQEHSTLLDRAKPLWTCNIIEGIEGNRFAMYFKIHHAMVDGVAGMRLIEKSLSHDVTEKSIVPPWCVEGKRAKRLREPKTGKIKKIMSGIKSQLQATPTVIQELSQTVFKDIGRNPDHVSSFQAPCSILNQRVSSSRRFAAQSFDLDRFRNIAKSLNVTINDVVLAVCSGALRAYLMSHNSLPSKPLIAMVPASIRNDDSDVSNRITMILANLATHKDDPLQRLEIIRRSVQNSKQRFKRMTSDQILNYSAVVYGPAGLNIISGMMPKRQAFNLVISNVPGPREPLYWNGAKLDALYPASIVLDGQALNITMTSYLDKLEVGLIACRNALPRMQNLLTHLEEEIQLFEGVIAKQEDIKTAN
Method: (§4) WS activity was determined by monitoring CoA release using Ellman's reagent [5,5′-dithio-bis(2-nitrobenzoic acid); DTNB] at 412 nm (ε=13,600 M^−1 cm^−1) (Ellman, 1959. Arch. Biochem. Biophys. 82:70-77). Kinetic in vitro assays were performed in triplicate in 125 mM sodium phosphate buffer (pH 7.4) containing 0.1% Tergitol NP-11 detergent, 10 mM MgCl2, 1 mM DNTB, 250 μM palmitoyl-CoA, 1 to 250 μM hexadecanol, and 0.5 μg of WS enzyme. Assay reactions were preincubated at 37° C. for 5 min before the reactions were started by the addition of enzyme. Heat-denatured enzyme (99° C. for 15 min) was used as a negative control.
as §3, with “specificity. Isoprenoid WS activity of WS2 was determined with 250 μM HPLC purified phytanoyl-CoA and 250 μM phytol as substrates.” for “specificity.”
(§5) A spectrophotometric assay was developed to determine the kinetic properties of WS1 and WS2. The concentration of sulfhydryl groups of CoA released during the condensation reaction between fatty/isoprenoid CoA activated acids and alcohols was determined by using Ellman's reagent (DTNB) (Ellman, 1959. Arch. Biochem. Biophys. 82:70-77). The specific activities of WS1, WS2, and Acinetobacter WS/DGAT were measured with palmitoyl-CoA and hexadecanol, palmitoyl-CoA and phytol, and phytanoyl-CoA and phytol. Phytanoyl-CoA for these assays was enzymatically synthesized from phytanic acid and CoA using the above-characterized isoprenoid/acyl-CoA synthetase Acs2.

[5] = tested on: WS1; assay: as above; format: biochemical, Marinobacter hydrocarbonoclasticus DSM 8798
Method: as §4
as §3, with “specificity. Isoprenoid WS activity of WS2 was determined with 250 μM HPLC purified phytanoyl-CoA and 250 μM phytol as substrates.” for “specificity.”
as §5

[6] = biological target: T1, WS2; assay: WS2 kinetics on ethanol and oleoyl-CoA (DTNB); format: biochemical, Marinobacter hydrocarbonoclasticus
Method: (§6) […] Assay reactions were pre-incubated at 37° C. for 5 minutes before the reactions were started by the addition of enzyme.

[7] = substrate: CCCCCCCC/C=C\CCCCCCCC(=O)SCCNC(=O)CCNC(=O)[C@H](O)C(C)(C)COP(=O)(O)OP(=O)(O)OC[C@H]1O[C@@H](n2cnc3c(N)ncnc32)[C@H](O)[C@@H]1OP(=O)(O)O; assay: WS2 kinetics on ethanol and oleoyl-CoA (DTNB); format: biochemical, Marinobacter hydrocarbonoclasticus; settings: other: steady state; varied substrate 10 μM-250 μM, other substrate (oleoyl-CoA or ethanol) 500 μM; pH 7.2; 37.0 °C
Method: as §6

[8] = substrate: CCCCCCCCCCCCCCCCO; assay: Kinetic WS assay, spectrophotometric (CoA release, DTNB); format: biochemical, Marinobacter hydrocarbonoclasticus DSM 8798; settings: other: saturating palmitoyl-CoA (250 μM), various concentrations of hexadecanol; pH 7.4
[9] = co-substrate hexadecanol (C16), listed as palmitoyl-CoA
[10] = steady state, varied substrate 10 μM-250 μM, other substrate (oleoyl-CoA or ethanol) 500 μM

## CC(C)CCCC(C)CCCC(C)CCCC(C)CC(=O)SCCNC(=O)CCNC(=O)[C@H](O)C(C)(C)COP(=O)(O)OP(=O)(O)OC[C@H]1O[C@@H](n2cnc3c(N)ncnc32)[C@H](O)[C@@H]1OP(=O)(O)O (stereo partly drawn) [Phytanoyl-CoA]
[1]
  WE product formation by WS2 (TLC), in words: fatty alcohols were not condensed to phytanoyl-CoA; also recorded: produced isoprenoid WEs from phytanoyl-CoA and the isoprenoid alcohols phytol and farnesol
[2]; co-substrate phytol
  Mean sp act ± SD of Marinobacter WS2: 0.397 ± 0.099 mmol/min/mg
[2]; co-substrate phytol, listed as phytanoyl-CoA
  Mean sp act ± SD of Marinobacter WS2: 0.397 mmol/min/mg
[3]
  WE product formation by WS1 (TLC), in words: fatty alcohols were not condensed to phytanoyl-CoA; also recorded: produced isoprenoid WEs from phytanoyl-CoA and the isoprenoid alcohols phytol and farnesol

## CCCCCCCCCCCCCCCC(=O)SCCNC(=O)CCNC(=O)[C@H](O)C(C)(C)COP(=O)(O)OP(=O)(O)OC[C@H]1O[C@@H](n2cnc3c(N)ncnc32)[C@H](O)[C@@H]1OP(=O)(O)O [Palmitoyl-CoA, palmitoyl-CoA (C16:0)]
[4]; co-substrate hexadecanol (C16)
  Mean sp act ± SD of Acinetobacter WS/DGAT: 0.389 ± 0.039 mmol/min/mg
[4]; [9]
  Mean sp act ± SD of Acinetobacter WS/DGAT: 0.38 mmol/min/mg
[4]; co-substrate phytol
  Mean sp act ± SD of Acinetobacter WS/DGAT: 0.138 ± 0.003 mmol/min/mg
[5]; co-substrate hexadecanol (C16)
  Mean sp act ± SD of Marinobacter WS1: 1.338 ± 0.5 mmol/min/mg
[5]; [9]
  Mean sp act ± SD of Marinobacter WS1: 1.3 mmol/min/mg
[5]; co-substrate phytol
  Mean sp act ± SD of Marinobacter WS1: 0.152 ± 0.011 mmol/min/mg
[2]; co-substrate hexadecanol (C16)
  Mean sp act ± SD of Marinobacter WS2: 61.323 ± 1.79 mmol/min/mg
[2]; [9]
  Mean sp act ± SD of Marinobacter WS2: 61 mmol/min/mg
[2]; co-substrate phytol
  Mean sp act ± SD of Marinobacter WS2: 28.872 ± 2.13 mmol/min/mg
[2]; hexadecanol as acyl acceptor, both substrates 1 mM
  Acyl-CoA specificity of WS2: clear preference
[2]; palmitoyl-CoA and phytol as substrates
  WS2 more active than WS1 or Acinetobacter WS/DGAT in creating the hybrid WE: 20 fold

## CCO [Ethanol]
[6]; steady state on ethanol and oleoyl-CoA
  Kcat of WS2: 32 s⁻¹
[6]; [10]
  Km: 17 µM
  Vmax of WS2: 1250 μmol (mg/min)^−1

B1: WS2 (Marinobacter nauticus) (protein)
chain: MKRLGTLDASWLAVESEDTPMHVGTLQIFSLPEGAPETFLRDMVTRMKEAGDVAPPWGYKLAWSGFLGRVIAPAWKVDKDIDLDYHVRHSALPRPGGERELGILVSRLHSNPLDFSRPLWECHVIEGLENNRFALYTKMHHSMIDGISGVRLMQRVLTTDPERCNMPPPWTVRPHQRRGAKTDKEASVPAAVSQAMDALKLQADMAPRLWQAGNRLVHSVRHPEDGLTAPFTGPVSVLNHRVTAQRRFATQHYQLDRLKNLAHASGGSLNDIVLYLCGTALRRFLAEQNNLPDTPLTAGIPVNIRPADDEGTGTQISFMIASLATDEADPLNRLQQIKTSTRRAKEHLQKLPKSALTQYTMLLMSPYILQLMSGLGGRMRPVFNVTISNVPGPEGTLYYEGARLEAMYPVSLIAHGGALNITCLSYAGSLNFGFTGCRDTLPSMQKLAVYTGEALDELESLILPPKKRARTRK
[7]
  Km: 23 µM
  kcat/Km: 2.56 × 10^6 (M^−1 s^−1) M^−1 s^−1
[8]
  Km: 44 µM
  Vmax: 10 mmol/mg/min
  kcat: 4,794 s^−1
[2]; in vitro
  WS2 more active in vitro in producing acyl ester products than Acinetobacter WS/DGAT: approximately 150 times

From patent US7897369B2, “Isoprenoid wax ester synthases, isoprenoid acyl CoA-synthetases, and uses thereof” (Regents of the University of Minnesota, priority 2007, dated 2011)
